Assay results as given in paper PMC8621334, “Ammonium Formate-Pd/C as a New Reducing System for 1,2,4-Oxadiazoles. Synthesis of Guanidine Derivatives and Reductive Rearrangement to Quinazolin-4-Ones with Potential Anti-Diabetic Activity” (International Journal of Molecular Sciences, 2021).

Target: T1, Dipeptidyl-Peptidase IV (DPPIV) (Homo sapiens, UniProt P27487)
T1 construct: gene DPP4
Assay: fluorometric DPPIV activity assay kit, % inhibition at […]
Assay type: biochemical

T1 sequence (P27487 whole entry): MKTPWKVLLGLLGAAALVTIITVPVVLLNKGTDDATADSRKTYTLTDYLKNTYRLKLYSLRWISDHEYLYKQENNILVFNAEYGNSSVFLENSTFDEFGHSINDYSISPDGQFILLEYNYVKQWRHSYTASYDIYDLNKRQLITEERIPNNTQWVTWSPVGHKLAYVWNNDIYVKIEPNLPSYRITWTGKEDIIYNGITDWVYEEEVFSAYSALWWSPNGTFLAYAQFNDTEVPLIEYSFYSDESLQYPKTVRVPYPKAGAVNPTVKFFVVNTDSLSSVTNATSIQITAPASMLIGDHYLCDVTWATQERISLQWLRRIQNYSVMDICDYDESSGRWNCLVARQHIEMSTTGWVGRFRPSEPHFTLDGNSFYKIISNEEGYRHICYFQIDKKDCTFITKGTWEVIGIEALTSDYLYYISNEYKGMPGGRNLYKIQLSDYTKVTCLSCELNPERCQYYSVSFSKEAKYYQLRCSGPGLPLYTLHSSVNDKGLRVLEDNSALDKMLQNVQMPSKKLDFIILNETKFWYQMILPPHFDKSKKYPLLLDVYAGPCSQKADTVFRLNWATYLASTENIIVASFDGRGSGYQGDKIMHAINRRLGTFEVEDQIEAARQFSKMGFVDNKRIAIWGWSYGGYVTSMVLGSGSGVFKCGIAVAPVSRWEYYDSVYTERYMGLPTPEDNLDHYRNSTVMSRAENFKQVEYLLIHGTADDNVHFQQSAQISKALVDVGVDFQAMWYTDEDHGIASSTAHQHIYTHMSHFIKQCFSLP

Row | inhibition at 100 µM | SMILES
1 | 79.1% | COc1ccc(-c2nc(=O)c3ccccc3[nH]2)cc1 [4h, 2-(4-Methoxyphenyl) quinazolin-4(1H)-one]
2 | 72.5% | O=c1nc(-c2ccc(C(F)(F)F)cc2)[nH]c2ccccc12 [4i, 2-(4-(Trifluoromethyl)phenyl)quinazolin-4(1H)-one]
3 | 82.4% | COc1ccc(-c2nc(=O)c3ccccc3n2C)cc1 [4f, 2-(4-Methoxyphenyl)-1-methylquinazolin-4(1H)-one]

Second part, the compound before the results:

Row | SMILES | inhibition at 100 µM
4 | CC(=O)NC(=N)NC(=O)c1ccccc1 [2k, N-(N-Acetylcarbamimidoyl)benzamide] | 79.3%
5 | N=C(NC(=O)c1ccccc1)NC(=O)c1ccccc1 [2n, N,N′-(Iminomethylene)dibenzamide] | 82.7%
